These results are taken from patent US11207312B2, “Metallo-beta-lactamase inhibitors and methods of use thereof” (priority 2017, dated 2021).

Structures are written as SMILES. Values after ≈ are worked out from the molar mass of the structure shown. Where only a bound is given, the exact number is not on record here.

Holding throughout (assay): microbe, parasite or virus in culture
Format in all cases: cell-based, Pseudomonas aeruginosa
Holding throughout (settings): Pseudomonas aeruginosa

The subject of assay [1] is efflux+ MB5919 Trans pFlp-Vim2 plasmid.
Assay [2] relates to MB9798 (efflux+ MB5919 Trans IMP1 plasmid). From the text: (§1) The strain background is Pseudomonas aeruginosa PAO1. A wild-type (M135919) and an isogenic strain in which multiple efflux pumps have been disrupted genetically were used. The MBL IMP-1, obtained from a clinical isolate was introduced into the strain pair by the following process:
(§2) The plasmid DNA was transformed into parental MB5919 (oprD+, efflux+, inducible AmpC) and MB5890 (oprD+, efflux−, inducible AmpC) isogenic strains by electroporation.
(§3) Minimum inhibitory concentrations of sentinel antibiotics were performed to quality control the new strains.

In assay [3] the test system is MB5890 (OprD+, efflux-).
Description: as §1, §2, §3

The test system of assay [4] is MB9799 (efflux- MB5890 Trans IMP1 plasmid).
Description: as §1, §2, §3

Assay [5] deals with MB5919 (OprD+, efflux+).
Description: as §1, §2, §3

Assay [6] has as its system efflux- MB5890 Trans pFlp-Vim2 plasmid.
Assay [7] concerns MB9862 (efflux- MB5890 trans pFlp-Vim1).
The test system of assay [8] is MB9861 (Efflux+ MB5919 Trans pFlp-Vim1 plasmid).

Turning to `O=C(N[C@H](CO)[C@H](O)c1ccc([N+](=O)[O-])cc1)C(Cl)Cl` [Chloramphenicol, chloramphenicol], the MIC in assay [1] was over 64 µg/mL; in assay [2], over 64 µg/mL; in assay [3] it was 1 µg/mL (≈ 3.09 µM); in assay [4], 1 µg/mL (≈ 3.09 µM); in assay [5] it was over 64 µg/mL; in assay [6], 1 µg/mL (≈ 3.09 µM). For the same compound, the MIC in assay [7] is 2 µg/mL (≈ 6.19 µM); in assay [8], over 64 µg/mL.

Turning to `CC[C@H]1OC(=O)[C@H](C)[C@@H](O[C@H]2C[C@@](C)(OC)[C@@H](O)[C@H](C)O2)[C@H](C)[C@@H](O[C@@H]2O[C@H](C)C[C@H](N(C)C)[C@H]2O)[C@](C)(O)C[C@@H](C)CN(C)[C@H](C)[C@@H](O)[C@]1(C)O` [Azithromycin], the MIC in assay [1] was 32 µg/mL (≈ 42.7 µM); in assay [2] it was 2 µg/mL (≈ 2.67 µM); in assay [3], 1 µg/mL (≈ 1.34 µM); in assay [4], 2 µg/mL (≈ 2.67 µM); in assay [5] it was 16 µg/mL (≈ 21.4 µM); in assay [6], 1 µg/mL (≈ 1.34 µM). Besides, the MIC in assay [7] came to 1 µg/mL (≈ 1.34 µM); in assay [8], 32 µg/mL (≈ 42.7 µM).
